Assay results from BindingDB's records for doi:10.1080/14756360290019944 (University of Porto-Rua Anibal Cunha, 2002).

Target: Xanthine dehydrogenase/oxidase (Homo sapiens, UniProt P47989)
Assay: Inhibition Assay
Conditions: pH 7.8; 25 °C
Method: The effect of 2-styrylchromone 1-3 on xanthine oxidase activity was evaluated by measuring the formation of uric acid from xanthine in a double beam spectrophotometer (Shimadzu 2600) at room temperature.

Xanthine dehydrogenase/oxidase, sequence (P47989 whole entry): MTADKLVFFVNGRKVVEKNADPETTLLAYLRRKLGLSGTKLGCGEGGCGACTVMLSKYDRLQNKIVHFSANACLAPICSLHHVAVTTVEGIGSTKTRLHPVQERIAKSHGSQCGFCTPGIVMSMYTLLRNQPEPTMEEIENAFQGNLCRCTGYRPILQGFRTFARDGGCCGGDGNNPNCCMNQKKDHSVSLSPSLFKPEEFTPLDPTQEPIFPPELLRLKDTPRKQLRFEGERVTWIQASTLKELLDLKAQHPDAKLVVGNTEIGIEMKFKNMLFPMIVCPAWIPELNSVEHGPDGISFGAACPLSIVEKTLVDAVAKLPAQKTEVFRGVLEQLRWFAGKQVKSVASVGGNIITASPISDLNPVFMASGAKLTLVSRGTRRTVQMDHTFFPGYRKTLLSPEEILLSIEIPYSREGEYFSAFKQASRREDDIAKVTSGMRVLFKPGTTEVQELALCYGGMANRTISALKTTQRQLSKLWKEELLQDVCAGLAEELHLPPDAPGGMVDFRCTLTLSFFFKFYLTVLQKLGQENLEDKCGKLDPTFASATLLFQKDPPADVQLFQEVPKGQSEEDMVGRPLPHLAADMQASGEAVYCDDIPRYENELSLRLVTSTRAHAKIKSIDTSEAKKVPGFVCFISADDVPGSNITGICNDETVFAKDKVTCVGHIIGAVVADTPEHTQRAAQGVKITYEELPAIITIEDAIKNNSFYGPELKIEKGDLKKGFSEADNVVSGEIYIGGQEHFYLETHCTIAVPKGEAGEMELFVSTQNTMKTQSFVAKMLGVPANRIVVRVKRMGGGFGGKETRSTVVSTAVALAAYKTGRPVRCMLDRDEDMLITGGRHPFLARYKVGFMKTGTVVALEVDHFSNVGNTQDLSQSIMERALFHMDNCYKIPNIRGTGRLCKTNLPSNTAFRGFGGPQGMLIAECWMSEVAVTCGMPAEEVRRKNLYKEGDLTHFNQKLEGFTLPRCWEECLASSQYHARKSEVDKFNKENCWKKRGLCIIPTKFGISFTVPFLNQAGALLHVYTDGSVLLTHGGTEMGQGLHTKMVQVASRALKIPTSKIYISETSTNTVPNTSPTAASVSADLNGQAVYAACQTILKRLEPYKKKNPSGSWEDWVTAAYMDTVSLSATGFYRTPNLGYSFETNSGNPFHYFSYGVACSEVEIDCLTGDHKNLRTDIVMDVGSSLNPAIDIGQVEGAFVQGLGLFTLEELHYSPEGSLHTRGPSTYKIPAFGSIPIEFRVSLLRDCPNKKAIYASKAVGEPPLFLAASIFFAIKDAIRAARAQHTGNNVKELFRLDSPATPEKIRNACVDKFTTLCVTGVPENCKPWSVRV

IC50 | SMILES
0.55 µM | O=c1cc(O)cc2oc(C=Cc3ccc(O)c(O)c3)cc(O)c1-2 [2-Styrylchromone derivate, 3c]
19.6 µM | O=c1cc(/C=C/c2ccc(O)cc2)oc2cc(O)ccc12 [2-Styrylchromone derivate, 2b]
77.4 µM | O=c1cccc2oc(C=Cc3ccc(O)cc3)cc(O)c1-2 [2-Styrylchromone derivate, 2a]
2.03 µM | O=c1cc(/C=C/c2ccc(O)c(O)c2)oc2cc(O)ccc12 [2-Styrylchromone derivate, 3b]
2.52 µM | O=c1cc(C=Cc2ccccc2)oc2cc(O)cc(O)c12 [2-Styrylchromone derivate, 1d]
17 µM | O=c1cc(/C=C/c2ccccc2)oc2cc(O)ccc12 [2-Styrylchromone derivate, 1c]
52.1 µM | O=c1cccc2oc(C=Cc3ccccc3)cc(O)c1-2 [2-Styrylchromone derivate, 1b]
> 100 µM | O=c1cc(/C=C/c2ccccc2)oc2ccccc12
9.46 µM | O=c1cc(C=Cc2ccc(O)cc2)oc2cc(O)cc(O)c12 [2-Styrylchromone derivate, 2c]
4.36 µM | O=c1cccc2oc(C=Cc3ccc(O)c(O)c3)cc(O)c1-2 [2-Styrylchromone derivate, 3a]
